One experiment deals with T1, RNase A (Bos taurus, UniProt P61823).
T1 sequence (P61823 27-150): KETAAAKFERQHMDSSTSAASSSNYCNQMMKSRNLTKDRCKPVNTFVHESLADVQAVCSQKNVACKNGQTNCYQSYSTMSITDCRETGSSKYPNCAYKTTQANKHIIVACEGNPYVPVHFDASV
Assay: not given
As to conditions: ref [7]; cited from earlier work.
As for `Nc1ncnc2c1ncn2[C@@H]1O[C@H](COP(=O)(O)OP(=O)(O)O)[C@@H](OP(=O)(O)O)[C@H]1O` [ppAp], the Ki was 0.24 µM.

For the compound `Nc1ncnc2c1ncn2C1OC(COP(=O)(O)OP(=O)(O)OC2CC(n3ccc(=O)[nH]c3=O)OC2COP(=O)(O)O)C(OP(=O)(O)O)C1O` (stereo not drawn) [pdUppAp], the inhibition constant (Ki) is 0.027 µM.

Take `Cc1cn([C@H]2C[C@H](OP(=O)(O)OP(=O)(O)OC[C@H]3O[C@@H](n4cnc5c(N)ncnc54)C[C@@H]3O)[C@@H](CO)O2)c(=O)[nH]c1=O` [TppdA]: the Ki is 4 µM.

For `Nc1ncnc2c1ncn2[C@@H]1O[C@H](COP(=O)(O)OP(=O)(O)O[C@H]2C[C@H](n3ccc(=O)[nH]c3=O)O[C@@H]2CO)[C@@H](OP(=O)(O)O)[C@H]1O` [dUppAp], the Ki was 0.12 µM.

As for `Cc1cn(C2CC(OP(=O)(O)OP(=O)(O)OCC3OC(n4cnc5c(N)ncnc54)C(O)C3OP(=O)(O)O)C(COP(=O)(O)O)O2)c(=O)[nH]c1=O` (stereo not drawn) [pdTppAp], the inhibitory constant (Ki) is 0.041 µM.

Staying with this experiment, now noted: ref [10]; cited from earlier work.
With `Nc1ncnc2c1ncn2[C@@H]1O[C@H](COP(=O)(O)OP(=O)(O)OP(=O)(O)OC[C@H]2O[C@@H](n3cnc4c(N)ncnc43)[C@H](O)[C@@H]2O)[C@@H](O)[C@H]1O` [Ap3A], the inhibition constant (Ki) is 29 µM.

With `Nc1ncnc2c1ncn2[C@@H]1O[C@H](COP(=O)(O)OP(=O)(O)OP(=O)(O)O)[C@@H](O)[C@H]1O` [p3A], the inhibition constant Ki is 0.86 µM.

For `Nc1ncnc2c1ncn2[C@@H]1O[C@H](COP(=O)(O)OP(=O)(O)OP(=O)(O)OP(=O)(O)OP(=O)(O)OC[C@H]2O[C@@H](n3cnc4c(N)ncnc43)[C@H](O)[C@@H]2O)[C@@H](O)[C@H]1O` [Ap5A], the Ki is 0.23 µM.

Turning to `Nc1ncnc2c1ncn2[C@@H]1O[C@H](COP(=O)(O)OP(=O)(O)OP(=O)(O)OP(=O)(O)OC[C@H]2O[C@@H](n3cnc4c(N)ncnc43)[C@H](O)[C@@H]2O)[C@@H](O)[C@H]1O` [Ap4A], the inhibition constant (Ki) was 2.6 µM.

The experiment is the same for the next values; noted with them: ref [40]; cited from earlier work.
Regarding `O=P(O)(O)O` [Pi, orthophosphate], the Ki was 4600 µM.

Consider `O=P(O)(O)OP(=O)(O)O` [P2i, pyrophosphate], for which the Ki was 170 µM.

The experiment is the same for the next values; noted with them: ref [41]; cited from earlier work.
In the case of `Nc1ncnc2c1ncn2[C@@H]1O[C@H](COP(=O)(O)OP(=O)(O)O)[C@@H](O)[C@H]1O` [p2A], the inhibitory constant (Ki) is 1.2 µM.

The experiment is the same for the next values; noted with them: ref [42]; cited from earlier work.
Consider `O=c1ccn([C@@H]2O[C@H](COP(=O)(O)O)[C@@H](O)[C@H]2O)c(=O)[nH]1` [pU], for which the inhibition constant Ki is 4000 µM.

The experiment is the same for the next values; noted with them: ref [43]; cited from earlier work.
For `O=c1ccn([C@@H]2O[C@H](COP(=O)(O)OP(=O)(O)O)[C@@H](O)[C@H]2O)c(=O)[nH]1` [p2U], the inhibition constant (Ki) was 650 µM.

The next experiment has as its target T1, RNase A. Briefly: Salt dependence of inhibition/binding of RNase A. The note with it: salt dependence of inhibition (Figure S30). The class given is biochemical, bovine.
Take `O=c1ccn([C@@H]2O[C@H](COP(=O)(O)OP(=O)(O)OP(=O)(O)OP(=O)(O)OP(=O)(O)O)[C@@H](O)[C@H]2O)c(=O)[nH]1` [p5U]: the “δlogKd/δlog[Na+]” value was determined as 3.2.

The target in another experiment is T1, RNase A. Briefly: Inhibition kinetics of RNase A using a fluorogenic substrate. The experiment is classed as biochemical, bovine. As to conditions: ± standard error of fitting one-site binding equation; this work.
`Nc1ncnc2c1ncn2C1OC(COP(=O)(O)OP2(=O)OP(=O)(O)OP(=O)(O)OP(=O)(O)O2)C(O)C1O` (stereo not drawn) [cp4pA] returned a Ki of 0.48 ± 0.03 µM.

`O=P1(O)OP(=O)(O)OP(=O)(O)OP(=O)(O)OP(=O)(O)OP(=O)(O)O1` [cP6i, hexametaphosphate]: the inhibitory constant (Ki) amounted to 6.2 ± 0.1 µM.

As for `O=P1(O)OP(=O)(O)OP(=O)(O)O1` [cP3i, trimetaphosphate], the inhibition constant Ki was 960 ± 80 µM.

Consider `O=c1ccn(C2OC(COP(=O)(O)OP3(=O)OP(=O)(O)OP(=O)(O)OP(=O)(O)O3)C(O)C2O)c(=O)[nH]1` (stereo not drawn) [cp4pU], for which the Ki stood at 0.98 ± 0.07 µM.

For the compound `O=c1ccn([C@@H]2O[C@H](COP(=O)(O)OP(=O)(O)OP(=O)(O)O)[C@@H](O)[C@H]2O)c(=O)[nH]1` [p3U], the Ki amounted to 8.3 ± 0.3 µM.

On to `Nc1ncnc2c1ncn2[C@@H]1O[C@H](COP(=O)(O)OP(=O)(O)OP(=O)(O)OP(=O)(O)O)[C@@H](O)[C@H]1O` [p4A, adenosine tetraphosphate], for which the affinity corresponds to a Ki of 2.1 ± 0.2 µM.

Compound `O=c1ccn([C@@H]2O[C@H](COP(=O)(O)OP(=O)(O)OP(=O)(O)OP(=O)(O)OP(=O)(O)O)[C@@H](O)[C@H]2O)c(=O)[nH]1` [p5U] yielded an inhibitory constant (Ki) of 0.068 ± 0.007 µM.

`Nc1ncnc2c1ncn2[C@@H]1O[C@H](COP(=O)(O)O)[C@@H](O)[C@H]1O` [pA] showed an inhibitory constant (Ki) of 170 ± 6 µM.

Take `O=c1ccn([C@@H]2O[C@H](COP(=O)(O)OP(=O)(O)OP(=O)(O)OP(=O)(O)O)[C@@H](O)[C@H]2O)c(=O)[nH]1` [p4U, uridine tetraphosphate]: the Ki is 1.8 ± 0.1 µM.

`O=P(O)(O)OP(=O)(O)OP(=O)(O)O` [P3i] yielded an inhibition constant Ki of 23 ± 1 µM.

Compound `O=P1(O)OP(=O)(O)OP(=O)(O)OP(=O)(O)O1` [cP4i, tetrametaphosphate] yielded a Ki of 30 ± 0.8 µM.

The compound `Nc1ncnc2c1ncn2[C@@H]1O[C@H](COP(=O)(O)OP(=O)(O)OP(=O)(O)OP(=O)(O)OP(=O)(O)O)[C@@H](O)[C@H]1O` [p5A] gave an inhibition constant Ki of 1.4 ± 0.06 µM.

Values taken from article PMC7015663 (Journal of the American Chemical Society, 2019).
